Values after ≈ are worked out from the molar mass of the structure shown.
Columns and labels:
Assay type in all cases: functional
Conditions in all cases: read-out: ED50 (the source's name)
HT-29 = assay: Cytotoxicity against human HT-29 cells
A549 = assay: Cytotoxicity against human A549 cells
SK-MEL-28 = assay: Cytotoxicity against human SK-MEL-28 cells
P388 = assay: Cytotoxicity against mouse P388 cells

Structure (SMILES)	EC50 (HT-29) [µg/mL]	EC50 (A549) [µg/mL]	EC50 (SK-MEL-28) [µg/mL]	EC50 (P388) [µg/mL]
CO[C@H]1CC[C@@](C)(OC(C)=O)[C@@H]2O[C@H](C[C@]1(C)O)[C@@H]1[C@H]2[C@@H](C(C)C)CC[C@@]1(C)OC(C)=O [PALMONINE A]	> 10	> 10	> 10	> 10
C=C1C[C@H]2O[C@H]([C@H]3[C@@H]2[C@](C)(OC(C)=O)CC[C@@H]3C(C)C)[C@](C)(OC(C)=O)CC[C@@H]1OC(C)=O [PALMONINE B]			5 (≈ 10.8 µM)	5 (≈ 10.8 µM)
CO[C@H]1CC[C@@](C)(OC(C)=O)[C@@H]2O[C@H](C[C@]1(C)O)[C@@H]1[C@H]2[C@@H](C(C)C)CC[C@@]1(C)O [PALMONINE C]	> 10	> 10	> 10	> 10
C=C1C[C@H]2O[C@H]([C@H]3[C@@H]2[C@](C)(OC(C)=O)CC[C@@H]3C(C)C)[C@](C)(OC(C)=O)CCC1=O [PALMONINE D]	> 10	> 10	> 10	> 10
CC(=O)O[C@]1(C)CC[C@H](C(C)C)[C@@H]2[C@H]1[C@H]1/C=C(/C)C(=O)CC[C@@](C)(OC(C)=O)[C@@H]2O1 [PALMONINE E]	> 10	> 10	> 10	> 10
C=C1C[C@H]2O[C@H]([C@H]3[C@@H]2[C@](C)(OC(C)=O)CC[C@@H]3C(C)C)[C@](C)(OC(C)=O)CC[C@@H]1O [PALMONINE F]	> 10	> 10	> 10	> 10

Reference: ChEMBL document CHEMBL1148087, “Structure and absolute configuration of palmonine F, a new eunicellin-based diterpene from the gorgonian Eunicella verrucosa” (1994)
